# PMC3605901 (Bioorganic & medicinal chemistry, 2013)
# Entries after “also recorded” stand apart in the source; their conditions may differ. Like-named read-outs stand apart in the source and are kept apart here.
# What was measured:
# Aqueous = details: for Aq. Sol.: kinetic solubility in aqueous Todd Hewitt (THY) bacterial media, 37°C
# GAS strain UMAA2616 = experiment: microbe, parasite or virus in culture; assay type: cell-based, Streptococcus pyogenes (Group A Streptococcus); details: Streptococcus pyogenes, UMAA2616, read-out: 50 μM Growth T/C
# [1] = Microsomal stability assay; details: for MLM t1/2: half-life of parent compound during incubation with mouse liver microsomes, 1 μM, 0.5 mg/mL, NADPH; for half-life at 1 μM: mouse, microsomes
# HeLa cells = experiment: Mammalian cytotoxicity assay; assay type: cell-based; details: up to 100 μM, the highest concentration tested; 24 hours
# [2] = biological target: streptokinase (SK) expression in GAS strain UMAA2616; experiment: microbe, parasite or virus in culture; assay type: cell-based, Streptococcus pyogenes (Group A Streptococcus); details: for IC50: read-out: IC50 (SK activity)
# [3] = tested on: S. aureus biofilm formation; experiment: Biofilm formation, plate-based OD assay; assay type: cell-based, Staphylococcus aureus; details: reported in greater detail in ref 28
# GAS infection = details: transgenic mouse model of GAS infection; cited from earlier work
# [4] = full dose-response titration, approximate IC50
molecule,measurement,setting,value
"C=CCn1c(SCC#N)nc2c(c1=O)C(C)(C)Cc1ccccc1-2 [12g, 2-((3-allyl-5,5-dimethyl-4-oxo-3,4,5,6-tetrahydrobenzo[h]quinazolin-2-yl)thio)acetonitrile]",solubility at 5 min,Aqueous,3 ± 1 µM
same,activity at 50 µM,GAS strain UMAA2616,100 ± 3%
"C=CCn1c(NCC)nc2c(c1=O)C(C)(C)Cc1ccccc1-2 [13b, 3-allyl-2-(ethylamino)-5,5-dimethyl-5,6-dihydrobenzo[h]quinazolin-4(3H)-one]",activity at 50 µM,GAS strain UMAA2616,6 ± 3%
"2-(ethylthio)-9-methoxy-5,5-dimethyl-3-(2,2,2-trifluoroethyl)-5,6-dihydrobenzo[h]quinazolin-4(3H)-one [19b]",MLM t1/2,[1],3.0 min
C=CCn1c(SCc2ccccc2)nc2c(c1=O)C(C)(C)Cc1ccccc1-2 [compound 29],activity at 50 µM,GAS strain UMAA2616,103 ± 3%
same,Inhibition of HeLa cell growth,HeLa cells,≤ 35%
C=CCn1c(SCC)nc2c(c1=O)C(C)(C)Cc1ccccc1-2 [compound 30],activity at 50 µM,GAS strain UMAA2616,89 ± 5%
"3-Allyl-2-(ethylthio)-8-isopropoxy-5,5-dimethyl-5,6-dihydrobenzo[h]quinazolin-4(3H)-one [17f]",Aq. Sol.,Aqueous,14.5 ± 3.5 µM
same,IC50,[2]; [4],4.1 ± 0.7 µM
"C=CCn1c(SCCOC)nc2c(c1=O)C(C)(C)Cc1ccccc1-2 [12h, 3-allyl-2-((2-methoxyethyl)thio)-5,5-dimethyl-5,6-dihydrobenzo[h]quinazolin-4(3H)-one]",activity at 50 µM,GAS strain UMAA2616,86 ± 10%
same,Inhibition of HeLa cell growth,HeLa cells,≤ 35%
"C=CCn1c(SCC(N)=O)nc2c(c1=O)C(C)(C)Cc1ccccc1-2 [12d, 2-((3-allyl-5,5-dimethyl-4-oxo-3,4,5,6-tetrahydrobenzo[h]quinazolin-2-yl)thio)acetamide]",activity at 50 µM,GAS strain UMAA2616,100 ± 2%
"C=CCn1c(SC)nc2c(c1=O)C1(CCCCC1)Cc1ccccc1-2 [6f, 3-allyl-2-(methylthio)-3H-spiro[benzo[h]quinazoline-5,1′-cyclohexan]-4(6H)-one]",activity at 50 µM,GAS strain UMAA2616,98 ± 3%
"C=CCn1c(SCc2ccc(NC(C)=O)cc2)nc2c(c1=O)C1(CCCCC1)Cc1ccccc1-2 [6c, N-(4-(((3-allyl-4-oxo-4,6-dihydro-3H-spiro[benzo[h]quinazoline-5,1′-cyclohexan]-2-yl)thio)methyl)phenyl)acetamide]",activity at 50 µM,GAS strain UMAA2616,96 ± 14%
"C=CCn1c(OCC)nc2c(c1=O)C(C)(C)Cc1ccccc1-2 [13a, 3-allyl-2-ethoxy-5,5-dimethyl-5,6-dihydrobenzo[h]quinazolin-4(3H)-one]",activity at 50 µM,GAS strain UMAA2616,50 ± 23%
"C=CCn1c(SCCN(C)C)nc2c(c1=O)C1(CCCCC1)Cc1ccccc1-2 [6e, 3-allyl-2-((2-(dimethylamino)ethyl)thio)-3H-spiro[benzo[h]quinazoline-5,1′-cyclohexan]-4(6H)-one]",activity at 50 µM,GAS strain UMAA2616,88 ± 20%
"C=CCn1c([S+]([O-])CC)nc2c(c1=O)C(C)(C)Cc1ccc(OC)cc1-2 (stereo not drawn) [compound 14, 3-allyl-2-(ethylsulfinyl)-9-methoxy-5,5-dimethyl-5,6-dihydrobenzo[h]quinazolin-4(3H)-one]",half-life at 1 μM,[1],2.8 min
same,activity at 50 µM,GAS strain UMAA2616,101 ± 5%
"4-(allyloxy)-2-(ethylthio)-9-methoxy-5,5-dimethyl-5,6-dihydrobenzo[h]quinazoline [20c]",MLM t1/2,[1],8.3 min
"C=CCn1c(SCc2ccc(OC)cc2)nc2c(c1=O)C1(CCCCC1)Cc1ccccc1-2 [6a, 3-allyl-2-((4-methoxybenzyl)thio)-3H-spiro[benzo[h]quinazoline-5,1′-cyclohexan]-4(6H)-one]",activity at 50 µM,GAS strain UMAA2616,105 ± 6%
CCn1c(SCc2ccccc2)nc2c(c1=O)C1(CCCC1)Cc1ccccc1-2 [compound 28],activity at 50 µM,GAS strain UMAA2616,107 ± 4%
"3-allyl-2-(ethylthio)-8-methoxy-5,5-dimethyl-5,6-dihydrobenzo[h]quinazolin-4(3H)-one [12c]",S. aureus biofilm inhibition,[3],potent S. aureus biofilm inhibitors
same,MLM t1/2,[1],0.8 min
same,Aq. Sol.,Aqueous,14.5 ± 3.5 µM
same,IC50,[2]; [4],3.1 ± 0.7 µM
same,Inhibition of HeLa cell growth,HeLa cells,≤ 35%
"2-((2-Methoxyethyl)thio)-4-(4-methoxyphenethoxy)-5,5-dimethyl-5,6-dihydrobenzo[h]quinazoline [20a]",MLM t1/2,[1],45.1 min
same,IC50,[2]; [4],5.5 ± 0.7 µM
same,Inhibition of HeLa cell growth,HeLa cells,≤ 35%
"3-allyl-2-(ethylthio)-9-methoxy-5,5-dimethyl-2,3,5,6-tetrahydrobenzo[h]quinazolin-4(1H)-one [12a]",MLM t1/2,[1],2.3 min
same,Aq. Sol.,Aqueous,9 ± 2 µM
same,Fold improvement in potency (IC50) over 1,[2],greater than 35 fold
same,Reduction in streptokinase activity at 5 μM,[2],90%
same,IC50,[2]; [4],1.3 ± 0.6 µM
same,Inhibition of HeLa cell growth,HeLa cells,≤ 35%
"C=CCn1c(SCCO)nc2c(c1=O)C(C)(C)Cc1ccccc1-2 [12f, 3-allyl-2-((2-hydroxyethyl)thio)-5,5-dimethyl-5,6-dihydrobenzo[h]quinazolin-4(3H)-one]",activity at 50 µM,GAS strain UMAA2616,6 ± 3%
"3-Allyl-2-(allylthio)-8-methoxy-5,5-dimethyl-5,6-dihydrobenzo[h]quinazolin-4(3H)-one [12k]",S. aureus biofilm inhibition,[3],potent S. aureus biofilm inhibitors
same,MLM t1/2,[1],0.6 min
same,Aq. Sol.,Aqueous,14.5 ± 3.5 µM
same,IC50,[2]; [4],6.9 ± 0.3 µM
"COCCSc1nc2c(c(=O)n1CCc1ccc(OC)cc1)C(C)(C)Cc1ccccc1-2 [19a, 2-((2-Methoxyethyl)thio)-3-(4-methoxyphenethyl)-5,5-dimethyl-5,6-dihydrobenzo[h]quin-azolin-4(3H)-one]",Inhibition of HeLa cell growth,HeLa cells,≤ 35%
"2-(ethylthio)-9-methoxy-5,5-dimethyl-4-(2,2,2-trifluoroethoxy)-5,6-dihydrobenzo[h]quinazoline [20b]",MLM t1/2,[1],45.5 min
"C=CCn1c(OCC)nc2c(c1=O)C1(CCCCC1)Cc1ccccc1-2 [7a, 3-allyl-2-ethoxy-3H-spiro[benzo[h]quinazoline-5,1′-cyclohexan]-4(6H)-one]",activity at 50 µM,GAS strain UMAA2616,102 ± 9%
"C=CCn1c(SCc2ccccn2)nc2c(c1=O)C(C)(C)Cc1ccccc1-2 [12e, 3-allyl-5,5-dimethyl-2-((pyridin-2-ylmethyl)thio)-5,6-dihydrobenzo[h]quinazolin-4(3H)-one]",activity at 50 µM,GAS strain UMAA2616,105 ± 2%
"CCn1c(SCCOC)nc2c(c1=O)C(C)(C)Cc1ccccc1-2 [12i, 3-ethyl-2-((2-methoxyethyl)thio)-5,5-dimethyl-5,6-dihydrobenzo[h]quinazolin-4(3H)-one]",activity at 50 µM,GAS strain UMAA2616,39 ± 15%
"C=CCn1c(SCC(F)(F)F)nc2c(c1=O)C(C)(C)Cc1ccc(OC)cc1-2 [12l, 3-allyl-9-methoxy-5,5-dimethyl-2-((2,2,2-trifluoroethyl)thio)-5,6-dihydrobenzo[h]quinazolin-4(3H)-one]",half-life at 1 μM,[1],4.8 min
same,activity at 50 µM,GAS strain UMAA2616,86 ± 7%
"C=CCn1c(NCC)nc2c(c1=O)C1(CCCCC1)Cc1ccccc1-2 [7b, 3-allyl-2-(ethylamino)-3H-spiro[benzo[h]quinazoline-5,1′-cyclohexan]-4(6H)-one]",activity at 50 µM,GAS strain UMAA2616,32 ± 18%
C=CCn1c(SCC(=O)OCC)nc2c(c1=O)C(C)(C)Cc1ccccc1-2 [compound 31],activity at 50 µM,GAS strain UMAA2616,101 ± 2%
"C=CCn1c(SCCOC)nc2c(c1=O)C1(CCCCC1)Cc1ccccc1-2 [6d, 3-allyl-2-((2-methoxyethyl)thio)-3H-spiro[benzo[h]quinazoline-5,1′-cyclohexan]-4(6H)-one]",activity at 50 µM,GAS strain UMAA2616,99 ± 10%
"C=CCn1c(SCCCC)nc2c(c1=O)C1(CCCCC1)Cc1ccccc1-2 [compound 1, 3-allyl-2-(butylthio)-3H-spiro[benzo[h]quinazoline-5,1′-cyclohexan]-4(6H)-one]",Fold higher stability to oxidation in MLM (comparison of t1/2),"[1]; 1 vs 6b, O-alkylated vs N-alkylated counterparts",more than 60 fold
same,solubility at 5 min,Aqueous,2 ± 1 µM
same,activity at 50 µM,GAS strain UMAA2616,95 ± 8%
same,% of plasmin activity at 50 μM,[2],48 ± 28%
same,IC50,[2]; Streptococcus pyogenes,> 50 µM
same,Efficacy in mouse models of GAS infection,GAS infection,displayed efficacy; also recorded: significant protective effect
same,Inhibition of HeLa cell growth,HeLa cells,≤ 35%
"CCSc1nc2c(c(=O)n1C)C(C)(C)Cc1ccc(OC)cc1-2 [12m, 2-(ethylthio)-9-methoxy-3,5,5-trimethyl-5,6-dihydrobenzo[h]quinazolin-4(3H)-one]",half-life at 1 μM,[1],1.7 min
same,activity at 50 µM,GAS strain UMAA2616,83 ± 15%
"C=CCn1c(S(=O)(=O)CC)nc2c(c1=O)C(C)(C)Cc1ccc(OC)cc1-2 [compound 15, 3-allyl-2-(ethylsulfonyl)-9-methoxy-5,5-dimethyl-5,6-dihydrobenzo[h]quinazolin-4(3H)-one]",half-life at 1 μM,[1],3.8 min
same,activity at 50 µM,GAS strain UMAA2616,103 ± 3%
"C=CCn1c(SCc2ccccc2)nc2c(c1=O)C1(CCCCC1)Cc1ccccc1-2 [6b, 3-allyl-2-(benzylthio)-3H-spiro[benzo[h]quinazoline-5,1′-cyclohexan]-4(6H)-one]",activity at 50 µM,GAS strain UMAA2616,96 ± 6%
same,IC50,[2]; Streptococcus pyogenes,> 50 µM
